This note sets out measurements from patent US11325929B2 (VivaVisionShanghaiLtd, priority 2017, dated 2022).

This assay relates to human T lymphocyte strain Jurkat (ATCC TIB-152) adhesion to ICAM-1. Description: T-cell adhesion assay (Jurkat cells on ICAM-1 coated plates). In kind it is cell-based. Particulars: BCECF-AM labelled Jurkat cells, ICAM-1 coated plate, fluorescence readout, read-out: EC50 of cell adhesion and inhibition. How it is done:
Cell Adhesion Inhibition Experiments:
T-cell adhesion assay was performed using human T lymphocyte strain Jurkat (ATCC TIB-152): goat Anti-Human IgG (Fc specific) (Sigma 18885) was diluted to 10 μg/ml in PBS, incubated 100 μL per well/96 well plate at 4° C. for 12 hours. Liquid in the well plate was poured off, blocked with 200 μL of 1% BSA at 37° C. for 90 minutes, and washed three times with PBS. 50 μL of 1 μg/mL ICAM-1 (containing 0.1% BSA, 0.01% Tween 20) was added to each well and incubated at 37° C. for 3 hours. The plate was washed 3 times with assay buffer (20 mM HEPES pH 7.6, 140 mM NaCl, 1 mM MgCl2, 1 mM MnCl2, 0.2% glucose).
The Jurkat […] was centrifuged at 100-G, and cells were resuspended in an assay buffer (20 mM HEPES pH 7.6, 140 mM NaCl, 1 mM MgCl2, 1 mM MnCl2, 0.2% glucose) at 37° C.
2 μl of 1 mM of BCECF-AM per mL of the cell suspension was added. Incubated at 37° C. for 30 minutes, stirred up every 10 minutes during the incubation. After the incubation, the cells were washed with assay buffer at 37° C. The cells were suspended to a concentration of 6×10^6/mL.
The inhibitor was diluted to a final concentration of 2× in assay buffer, and 50 μL of the compound solution and […] of Jurkat cells were mixed at room temperature, and incubated at 37° C. for 30 minutes. 100 μL/well of cells and inhibitors were added to the plate and incubated for 1 hour at room temperature. The total fluorescence was measured by a fluorometer: ex: 485; em: 530; cutoff: 530 to measure the total fluorescence. The plate was washed once with the assay buffer and the fluorescence was measured with a fluorometer: ex: 485; em: 530; cutoff. The results are plotted as inhibition-concentration plots and EC50 is calculated using standard methods.

Where two headings read alike, the source gives them in different places.

By EC50 is commonly meant the midpoint of the concentration-response curve. Regarding “2-(2,6-dichloro-4-(2-(methyl(3-hydroxyphenyl)phosphoryl)ethyl)benzylamino)-3-(3,5-(dimethylsulfonyl)phenyl)propionic Acid [Example 36]”, the EC50 is 30 nM.

Consider `CS(=O)(=O)c1cccc(C[C@H](NC(=O)c2c(Cl)cc(CCP(=O)(O)c3ccccc3)cc2Cl)C(=O)O)c1` [Example 1, (2s)-2-(2,6-dichloro-4-(2-(hydroxy(phenyl)phosphoryl)ethyl)benzamido)-3-(3-(methylsulfonyl)phenyl)propionic Acid], for which the EC50 (Homo sapiens) stood at 30 nM. Consider `CS(=O)(=O)c1cccc(C[C@H](NC(=O)c2c(Cl)cc(C#CP(=O)(O)c3cccc(O)c3)cc2Cl)C(=O)O)c1` [Example 2], for which the EC50 (Homo sapiens) was determined as 9.4 nM. As for `CS(=O)(=O)c1cccc(C[C@H](NC(=O)c2c(Cl)cc(CCP(=O)(O)c3cccc(O)c3)cc2Cl)C(=O)O)c1` [Example 3, (2s)-2-(2,6-dichloro-4-(2-(hydroxy(m-hydroxyphenyl)phosphoryl)ethyl)benzamido)-3-(3-(methylsulfonyl)phenyl)propionic Acid], the EC50 (Homo sapiens) came to 8.5 nM. Regarding `COP(=O)(C#Cc1cc(Cl)c(C(=O)N[C@@H](Cc2cccc(S(C)(=O)=O)c2)C(=O)O)c(Cl)c1)c1ccccc1` (stereo partly drawn) [Example 5], the EC50 (Homo sapiens) came to 22 nM. Take `CCOP(=O)(CCc1cc(Cl)c(C(=O)N[C@@H](Cc2cccc(S(C)(=O)=O)c2)C(=O)O)c(Cl)c1)c1cccc(O)c1` (stereo partly drawn) [Example 6, (2s)-2-(2,6-dichloro-4-(2-(ethoxy(m-hydroxyphenyl)phosphoryl)ethyl)benzamido)-3-(3-(methylsulfonyl)phenyl)propionic Acid]: the concentration giving a half-maximal response (EC50) (Homo sapiens) is 17 nM. On the same count and under the same terms, the same measure for `COP(=O)(C#Cc1cc(Cl)c(C(=O)N[C@@H](Cc2cccc(S(C)(=O)=O)c2)C(=O)O)c(Cl)c1)c1cccc(O)c1` (stereo partly drawn) [Example 7]: 7.2 nM.

For `COP(=O)(CCc1cc(Cl)c(C(=O)N[C@@H](Cc2cccc(S(C)(=O)=O)c2)C(=O)O)c(Cl)c1)c1cccc(O)c1` (stereo partly drawn) [Example 8, (2s)-2-(2,6-dichloro-4-(2-(methoxy(3-hydroxyphenyl)phosphoryl)ethyl)benzylamido)-3-(3-(methylsulfonyl)phenyl)propionic Acid], the EC50 (Homo sapiens) turned out to be 6.2 nM. Still for that read-out and setting: the same measure for `CP(=O)(C#Cc1cc(Cl)c(C(=O)N[C@@H](Cc2cccc(S(C)(=O)=O)c2)C(=O)O)c(Cl)c1)c1ccccc1` (stereo partly drawn) [Example 9]: 11.8 nM; for `CP(=O)(CCc1cc(Cl)c(C(=O)N[C@@H](Cc2cccc(S(C)(=O)=O)c2)C(=O)O)c(Cl)c1)c1ccccc1` (stereo partly drawn) [Example 10, (2s)-2-(2,6-dichloro-4-(2-(methyl(phenyl)phosphoryl)ethyl)benzamide)-3-(3-(methylsulfonyl)phenyl)propionic Acid]: 78 nM. The same measure, in the same setting: the same measure for `CP(=O)(C#Cc1cc(Cl)c(C(=O)N[C@@H](Cc2cccc(S(C)(=O)=O)c2)C(=O)O)c(Cl)c1)c1cccc(O)c1` (stereo partly drawn) [Example 11]: 13.5 nM; for `COc1cccc(P(=O)(C#Cc2cc(Cl)c(C(=O)N[C@@H](Cc3cccc(S(C)(=O)=O)c3)C(=O)O)c(Cl)c2)OC)c1` (stereo partly drawn) [Example 12]: 29 nM; for `COc1cccc(P(=O)(O)C#Cc2cc(Cl)c(C(=O)N[C@@H](Cc3cccc(S(C)(=O)=O)c3)C(=O)O)c(Cl)c2)c1` [Example 13]: 29 nM. Regarding `CP(=O)(CCc1cc(Cl)c(C(=O)N[C@@H](Cc2cccc(S(C)(=O)=O)c2)C(=O)O)c(Cl)c1)c1cccc(O)c1` (stereo partly drawn) [Example 14], where the note is “Homo sapiens”, the 50% effective concentration (EC50) stood at 8.5 nM. The same measure, in the same setting: next, `CP(=O)(C#Cc1cc(Cl)c(C(=O)N[C@@H](Cc2cccc(S(C)(=O)=O)c2)C(=O)O)c(Cl)c1)c1ccc(O)cc1` (stereo partly drawn) [Example 15]: 1.8 nM; `CS(=O)(=O)c1cccc(C[C@H](NC(=O)c2c(Cl)cc(C#CP(=O)(O)c3ccccc3)cc2Cl)C(=O)O)c1` [Example 16]: 7.2 nM; `CP(=O)(CCc1cc(Cl)c(C(=O)N[C@@H](CNC(=O)c2cccs2)C(=O)O)c(Cl)c1)c1cccc(O)c1` (stereo partly drawn) [Example 17, (2s)-2-(2,6-dichloro-4-(2-(methyl(3-hydroxyphenyl)phosphoryl)ethyl)benzamido)-3-(2-thenoylamide)propyl Acid]: 15 nM. On the same count and under the same terms, next, `CP(=O)(CCc1cc(Cl)c(C(=O)N[C@@H](CN/C(=N\C#N)N2CC[C@@H](O)C2)C(=O)O)c(Cl)c1)c1cccc(O)c1` (stereo partly drawn) [Example 19, (2s)-3-((R)—N′-cyano-3-hydroxytetrahydropyrrol-1-formamidino)-2-(2,6-dichloro-4-(2-(methyl(3-hydroxyphenyl)phosphoryl)ethyl)benzamido)propionic Acid]: 230 nM; `CCP(=O)(CCc1cc(Cl)c(C(=O)N[C@@H](Cc2cccc(S(C)(=O)=O)c2)C(=O)O)c(Cl)c1)c1cccc(O)c1` (stereo partly drawn) [Example 21]: 7.3 nM; `CS(=O)(=O)c1cccc(C[C@H](NC(=O)c2c(Cl)cc(CCP(=O)(c3cccc(O)c3)C3CC3)cc2Cl)C(=O)O)c1` (stereo partly drawn) [Example 22]: 22 nM. On the same count and under the same terms, the same measure for `CCCCP(=O)(CCc1cc(Cl)c(C(=O)N[C@@H](Cc2cccc(S(C)(=O)=O)c2)C(=O)O)c(Cl)c1)c1cccc(O)c1` (stereo partly drawn) [Example 23]: 61 nM; for `CP(=O)(CCc1cc(Cl)c(C(=O)N[C@@H](Cc2cccc(S(C)(=O)=O)c2)C(=O)O)c(Cl)c1)c1ccc2ccoc2c1` (stereo partly drawn) [Example 25]: 63 nM; for `CP(=O)(CCc1cc(Cl)c(C(=O)N[C@@H](Cc2cccc(S(C)(=O)=O)c2)C(=O)O)c(Cl)c1)c1cc2ccccc2o1` (stereo partly drawn) [Example 26]: 23 nM. Regarding `C[P@](=O)(CCc1cc(Cl)c(C(=O)N[C@@H](Cc2cccc(S(C)(=O)=O)c2)C(=O)O)c(Cl)c1)c1cccc(O)c1` [Example 30], the 50% effective concentration (EC50) (Homo sapiens) was 7.2 nM. Consider `C[P@@](=O)(CCc1cc(Cl)c(C(=O)N[C@@H](Cc2cccc(S(C)(=O)=O)c2)C(=O)O)c(Cl)c1)c1cccc(O)c1` [Example 31], for which, for the setting “Homo sapiens”, the EC50 is 7.1 nM. On to `CCOP(=O)(/C=C/c1cc(Cl)c(C(=O)N[C@@H](Cc2cccc(S(C)(=O)=O)c2)C(=O)O)c(Cl)c1)c1cccc(O)c1` (stereo partly drawn) [Example 32, (S,E)-2-(4-(2-(3-hydroxyphenyl)phosphonovinyl)-2,6-dichlorobenzamide)-3-(3-(methylsulfonyl)phenyl)propionic Acid], for which the EC50 (Homo sapiens) came out at 3.7 nM. Same read-out and setting: next, `CP(=O)(CCc1cc(Cl)c(C(=O)N[C@@H](Cc2cccc(S(C)(=O)=O)c2)C(=O)O)c(Cl)c1)c1ccc(O)cc1` (stereo partly drawn) [Example 33]: 10.8 nM; `CP(=O)(CCc1cc(Cl)c(C(=O)N[C@@H](CNC(=O)c2cccc(O)c2)C(=O)O)c(Cl)c1)c1cccc(O)c1` (stereo partly drawn) [Example 34, (2s)-2-(2,6-dichloro-4-(2-(methyl(3-hydroxyphenyl)phosphoryl)ethyl)benzamido)-3-(3-hydroxybenzamido)propionic Acid]: 12.5 nM. In the case of `CP(=O)(CCc1cc(Cl)c(C(=O)N[C@@H](CNC(=O)c2cc(O)cc(O)c2)C(=O)O)c(Cl)c1)c1cccc(O)c1` (stereo partly drawn) [Example 35, (2s)-2-(2,6-dichloro-4-(2-(methyl(3-hydroxyphenyl)phosphoryl)ethyl)benzamido)-3-(3,5-dihydroxybenzamido)propionic Acid], the half-maximal effective concentration (EC50) (Homo sapiens) was determined as 3.8 nM. Still for that read-out and setting: next, `CP(=O)(CCc1cc(Cl)c(C(=O)N[C@@H](CCCCNS(C)(=O)=O)C(=O)O)c(Cl)c1)c1cccc(O)c1` (stereo partly drawn) [Example 37]: greater than 1000 nM; `CP(=O)(CCc1cc(Cl)c(C(=O)N[C@@H](Cc2cncc(S(C)(=O)=O)c2)C(=O)O)c(Cl)c1)c1cccc(O)c1` (stereo partly drawn) [Example 38]: 24 nM. On the same count and under the same terms, next, `CP(=O)(CCc1cc(Cl)c(C(=O)N[C@@H](CC2CCN(S(C)(=O)=O)C2)C(=O)O)c(Cl)c1)c1cccc(O)c1` (stereo partly drawn) [Example 42]: 150 nM; `CP(=O)(CCc1cc(Cl)c(C(=O)N[C@@H](CN/C(=N\C#N)N2C[C@@H](O)[C@H](O)C2)C(=O)O)c(Cl)c1)c1cccc(O)c1` (stereo partly drawn) [Example 45, (2s)-3-((trans)-N′-cyano-3,4-dihydroxypyrrolidine-1-formamidino)-2-(2,6-dichloro-4-(2-(methyl(3-hydroxyphenyl)phosphoryl)ethyl)benzamido)propionic Acid]: greater than 1000 nM; `CP(=O)(CCc1cc(Cl)c(C(=O)N[C@@H](CN/C(=N\C#N)N(CCO)CCO)C(=O)O)c(Cl)c1)c1cccc(O)c1` (stereo partly drawn) [Example 46, (2s)-3-(2-cyano-3,3-bis(2-hydroxyethyl)guanidino)-2-(2,6-dichloro-4-(2-(methyl(3-hydroxyphenyl)phosphoryl)ethyl)benzamido)propionic Acid]: greater than 1000 nM.

As for `COP(=O)(C#Cc1cc(Cl)c(C(=O)N[C@@H](Cc2cccc(S(C)(=O)=O)c2)C(=O)O)c(Cl)c1)c1ccccc1O` (stereo partly drawn) [Example 47], under “Homo sapiens”, the EC50 came out at 340 nM. Still for that read-out and setting: the same measure for `CP(=O)(C#Cc1cc(Cl)c(C(=O)N[C@@H](Cc2cccc(S(C)(=O)=O)c2)C(=O)O)c(Cl)c1)c1ccc(O)c(Cl)c1` (stereo partly drawn) [Example 48]: 6.8 nM.
